Results published in patent US20240366809A1, “INHIBITOR OF PROSTATE SPECIFIC MEMBRANE ANTIGEN AND PHARMACEUTICAL USE THEREOF” (TIANJIN HENGRUI MEDICINE CO., LTD., priority 2021, published 2024).
“And” between values parts separate entries of the source, which are not always exact repeats. Equal entries are not always repeated.

Tests used:
[1] = Pharmacokinetics in blood of normal mice after single tail-vein injection; type: in vivo; details: for Blood % ID/g: normal mice, individual animals 1-4
Procedure: Through single tail-vein injections into mice, the pharmacokinetics of ^68Ga-v (Example 9) and PSMA-617 in blood was studied.
Each mouse was dosed at 50 μCi/100 μL, and blood samples were taken from the orbit 0.083, 0.25, 0.5, 1, 2, and 4 h post-dose (4 animals per time point). The blood samples were collected in pre-weighed sample tubes. The tubes were weighed and the weight of the blood samples was recorded. Then radioactivity counting was performed using a γ-counter. Meanwhile, a test sample was accurately diluted 100-fold, and 0.1 mL of the dilution was added to a counting tube and used as standard 1% ID (i.e., one percent of the injected dose). The radioactivity counts of the 1% ID standard and the biological samples were measured simultaneously on a γ-counter. The data on blood were expressed as the percentage of the radioactivity counts per gram of blood to the total injected dose (radioactivity counts) (% ID/g). Pharmacokinetic parameters were calculated from blood drug concentration data.

human organs = assay: Absorbed doses of radiation, estimates for human organs (OLINDA software); details: for radiation dose estimate, Adrenals: human organ: Adrenals; for radiation dose estimate, Brain: human organ: Brain; for radiation dose estimate, Esophagus: human organ: Esophagus; for radiation dose estimate, Eyes: human organ: Eyes; for radiation dose estimate, Gallbladder Wall: human organ: Gallbladder Wall; for radiation dose estimate, Heart Wall: human organ: Heart Wall; for radiation dose estimate, Kidneys: human organ: Kidneys; for radiation dose estimate, Left colon: human organ: Left colon; for radiation dose estimate, Liver: human organ: Liver; for radiation dose estimate, Lungs: human organ: Lungs; for radiation dose estimate, Osteogenic Cells: human organ: Osteogenic Cells; for radiation dose estimate, Pancreas: human organ: Pancreas; for radiation dose estimate, Prostate: human organ: Prostate; for radiation dose estimate, Rectum: human organ: Rectum; for radiation dose estimate, Red Marrow: human organ: Red Marrow; for radiation dose estimate, Right colon: human organ: Right colon; for radiation dose estimate, Salivary Glands: human organ: Salivary Glands; for radiation dose estimate, Small Intestine: human organ: Small Intestine; for radiation dose estimate, Spleen: human organ: Spleen; for radiation dose estimate, Stomach Wall: human organ: Stomach Wall; for radiation dose estimate, Testes: human organ: Testes; for radiation dose estimate, Thymus: human organ: Thymus; for radiation dose estimate, Thyroid: human organ: Thyroid; for radiation dose estimate, Urinary Bladder Wall: human organ: Urinary Bladder Wall; for radiation dose estimate, Effective Dose: human: Effective Dose; for radiation dose estimate, Total Body: human: Total Body
Procedure: The AUC of drug metabolisms was calculated from the biodistribution (Bio-D) data and imported into the OLINDA software to generate doses of radiation absorbed by all the organs.

O=C([O-])CN1CCN(CC(=O)[O-])CCN(CC(=O)NCC2CCC(C(=O)N[C@@H](Cc3ccc4ccccc4c3)C(=O)NCCCC[C@H](NC(=O)N[C@@H](CCC(=O)O)C(=O)O)C(=O)O)CC2)CCN(CC(=O)[O-])CC1.[68Ga+3] (stereo partly shown) [^68Ga-PSMA-617, reference compound]
Blood % ID/g ([1]; 0.083 h post-dose): 4.22 % ID/g (2×) and 4.29 % ID/g and 3.66 % ID/g
content of the radioactive substance in the blood ([1]; 0.25 h after the injections, mean of n=4): 2.27±0.44 % ID/g
Blood % ID/g ([1]; 0.25 h post-dose): 2.12 % ID/g and 2.53 % ID/g and 2.71 % ID/g and 1.73 % ID/g
Blood % ID/g ([1]; 0.5 h post-dose): 0.55 % ID/g (2×) and 0.84 % ID/g and 0.86 % ID/g
Blood % ID/g ([1]; 1 h post-dose): 0.14 % ID/g and 0.16 % ID/g and 0.10 % ID/g and 0.13 % ID/g
Blood % ID/g ([1]; 2 h post-dose): 0.04 % ID/g and 0.07 % ID/g and 0.10 % ID/g and 0.13 % ID/g
Blood % ID/g ([1]; 4 h post-dose): 0.29 % ID/g and 0.10 % ID/g and 0.09 % ID/g
half-life in the blood ([1]; blood of normal mice): 13.2 min
AUCINF_obs ([1]; blood of normal mice, 0-4 h): 1.65 ± 0.13 h* % ID/g
AUClast ([1]; blood of normal mice, 0-4 h): 1.66 ± 0.14 h* % ID/g
Cl_obs ([1]; blood of normal mice, 0-4 h): 12.10 ± 1.0 μCi/h* % ID/g
Cmax ([1]; blood of normal mice, 0-4 h): 4.10 ± 0.29 % ID/g
MRTlast ([1]; blood of normal mice, 0-4 h): 19.8 ± 3 min
Vz_obs ([1]; blood of normal mice, 0-4 h): 4.06 ± 1.39 μCi/% ID/g
t1/2 ([1]; blood of normal mice, 0-4 h): 13.2 min and 13.2 ± 1.2 min
radiation dose estimate, Adrenals (human organs): 7.49E−02 mSv/MBq
radiation dose estimate, Brain (human organs): 7.80E−02 mSv/MBq
radiation dose estimate, Esophagus (human organs): 1.79E−02 mSv/MBq
radiation dose estimate, Eyes (human organs): 1.25E−02 mSv/MBq
radiation dose estimate, Gallbladder Wall (human organs): 3.22E−02 mSv/MBq
radiation dose estimate, Heart Wall (human organs): 3.93E−02 mSv/MBq
radiation dose estimate, Kidneys (human organs): 5.47E−01 mSv/MBq
radiation dose estimate, Left colon (human organs): 1.63E−02 mSv/MBq
radiation dose estimate, Liver (human organs): 1.75E−01 mSv/MBq
radiation dose estimate, Lungs (human organs): 1.21E−01 mSv/MBq
radiation dose estimate, Osteogenic Cells (human organs): 3.14E−01 mSv/MBq
radiation dose estimate, Pancreas (human organs): 1.86E−02 mSv/MBq
radiation dose estimate, Prostate (human organs): 7.73E−03 mSv/MBq
radiation dose estimate, Rectum (human organs): 1.83E−01 mSv/MBq
radiation dose estimate, Red Marrow (human organs): 2.11E−02 mSv/MBq
radiation dose estimate, Right colon (human organs): 1.34E−02 mSv/MBq
radiation dose estimate, Salivary Glands (human organs): 9.39E−03 mSv/MBq
radiation dose estimate, Small Intestine (human organs): 1.00E−01 mSv/MBq
radiation dose estimate, Spleen (human organs): 1.79E−01 mSv/MBq
radiation dose estimate, Stomach Wall (human organs): 1.91E−02 mSv/MBq
radiation dose estimate, Testes (human organs): 3.69E−03 mSv/MBq
radiation dose estimate, Thymus (human organs): 1.16E−02 mSv/MBq
radiation dose estimate, Thyroid (human organs): 1.08E−02 mSv/MBq
radiation dose estimate, Urinary Bladder Wall (human organs): 5.54E−03 mSv/MBq
radiation dose estimate, Effective Dose (human organs): 4.68E−02 mSv/MBq
radiation dose estimate, Total Body (human organs): 3.61E−02 mSv/MBq

O=C([O-])CN1CCN(CC(=O)[O-])CCN(CC(=O)NCC2CCC(C(=O)N[C@@H](Cc3ccc4ccccc4c3)C(=O)NCCCC[C@H](NC(=O)N[C@@H](CCC(=O)O)C(=O)O)C(=O)O)CC2)CCN(CC(=O)[O-])CC1.[177Lu+3] (stereo partly shown) [^177Lu-PSMA-617, reference compound]
radiation dose estimate, Adrenals (human organs): 2.43E−02 mSv/MBq
radiation dose estimate, Brain (human organs): 1.38E−01 mSv/MBq
radiation dose estimate, Esophagus (human organs): 3.39E−03 mSv/MBq
radiation dose estimate, Eyes (human organs): 2.74E−03 mSv/MBq
radiation dose estimate, Gallbladder Wall (human organs): 3.58E−03 mSv/MBq
radiation dose estimate, Heart Wall (human organs): 2.41E−02 mSv/MBq
radiation dose estimate, Kidneys (human organs): 1.47E+00 mSv/MBq
radiation dose estimate, Left colon (human organs): 4.60E−03 mSv/MBq
radiation dose estimate, Liver (human organs): 3.15E−02 mSv/MBq
radiation dose estimate, Lungs (human organs): 1.12E−01 mSv/MBq
radiation dose estimate, Osteogenic Cells (human organs): 5.58E−01 mSv/MBq
radiation dose estimate, Pancreas (human organs): 4.36E−03 mSv/MBq
radiation dose estimate, Prostate (human organs): 1.23E−03 mSv/MBq
radiation dose estimate, Rectum (human organs): 1.49E−03 mSv/MBq
radiation dose estimate, Red Marrow (human organs): 3.80E−03 mSv/MBq
radiation dose estimate, Right colon (human organs): 2.74E−03 mSv/MBq
radiation dose estimate, Salivary Glands (human organs): 2.18E−03 mSv/MBq
radiation dose estimate, Small Intestine (human organs): 4.48E−02 mSv/MBq
radiation dose estimate, Spleen (human organs): 9.86E−01 mSv/MBq
radiation dose estimate, Stomach Wall (human organs): 8.22E−03 mSv/MBq
radiation dose estimate, Testes (human organs): 5.04E−04 mSv/MBq
radiation dose estimate, Thymus (human organs): 2.04E−03 mSv/MBq
radiation dose estimate, Thyroid (human organs): 1.83E−03 mSv/MBq
radiation dose estimate, Urinary Bladder Wall (human organs): 7.53E−04 mSv/MBq
radiation dose estimate, Effective Dose (human organs): 4.74E−02 mSv/MBq
radiation dose estimate, Total Body (human organs): 2.91E−02 mSv/MBq

O=C([O-])CN1CCN(CC(=O)[O-])CCN(CC(=O)N2CCO[C@]3(CC[C@H](C(=O)N[C@@H](Cc4ccc5ccccc5c4)C(=O)NCCCC[C@H](NC(=O)N[C@@H](CCC(=O)O)C(=O)O)C(=O)O)CC3)C2)CCN(CC(=O)[O-])CC1.[177Lu+3] [^177Lu-v]
absorbed dose of radiation, comparison with the labeled PSMA-617 in words (human organs; from Table 5): smaller than that resulting from ^177Lu-PSMA-617
radiation dose estimate, Adrenals (human organs): 1.74E−02 mSv/MBq
radiation dose estimate, Brain (human organs): 6.03E−02 mSv/MBq
radiation dose estimate, Esophagus (human organs): 4.33E−03 mSv/MBq
radiation dose estimate, Eyes (human organs): 2.21E−03 mSv/MBq
radiation dose estimate, Gallbladder Wall (human organs): 4.67E−03 mSv/MBq
radiation dose estimate, Heart Wall (human organs): 2.72E−02 mSv/MBq
radiation dose estimate, Kidneys (human organs): 8.83E−01 mSv/MBq
radiation dose estimate, Left colon (human organs): 4.81E−03 mSv/MBq
radiation dose estimate, Liver (human organs): 7.43E−02 mSv/MBq
radiation dose estimate, Lungs (human organs): 1.95E−01 mSv/MBq
radiation dose estimate, Osteogenic Cells (human organs): 6.52E−01 mSv/MBq
radiation dose estimate, Pancreas (human organs): 5.14E−03 mSv/MBq
radiation dose estimate, Prostate (human organs): 1.29E−03 mSv/MBq
radiation dose estimate, Rectum (human organs): 1.91E−03 mSv/MBq
radiation dose estimate, Red Marrow (human organs): 4.16E−03 mSv/MBq
radiation dose estimate, Right colon (human organs): 3.03E−03 mSv/MBq
radiation dose estimate, Salivary Glands (human organs): 1.67E−03 mSv/MBq
radiation dose estimate, Small Intestine (human organs): 1.73E−01 mSv/MBq
radiation dose estimate, Spleen (human organs): 6.84E−01 mSv/MBq
radiation dose estimate, Stomach Wall (human organs): 2.73E−02 mSv/MBq
radiation dose estimate, Testes (human organs): 5.84E−04 mSv/MBq
radiation dose estimate, Thymus (human organs): 2.83E−03 mSv/MBq
radiation dose estimate, Thyroid (human organs): 2.41E−03 mSv/MBq
radiation dose estimate, Urinary Bladder Wall (human organs): 9.14E−04 mSv/MBq
radiation dose estimate, Effective Dose (human organs): 5.46E−02 mSv/MBq
radiation dose estimate, Total Body (human organs): 3.07E−02 mSv/MBq
